Usually melting point stands for the temperature of the solid-liquid transition.

Drawing on a melting point compilation (Tetko et al.; mined from patent text by program, amines drawn as free bases though some values may be those of a salt), this text covers melting point for 87 molecules.

Turning to `CON=C(Cl)c1ccccc1S(=O)(=O)NC(=O)Nc1nc(C)cc(OC)n1`, the melting point lay within 178 to 179 °C. With `CCCS(=O)(=O)c1cc([C@H]2CC[C@H](c3cc(OC)c(OC)c(OC)c3)O2)cc(OC)c1OCCBr` (relative stereo), the melting point fell in the range of 135 to 136 °C. `CCCc1nc2c(N)nc3cc(C(F)(F)F)ccc3c2s1` yielded a melting point of 215 to 216 °C. `C=CCSC1(C(F)(F)F)CN(C2CC2)C(=O)Nc2ccc(Cl)cc21` (configuration not stated) registered a melting point of 144 to 146 °C.

Molecule `C=CCNc1nc(N(CC=C)CC=C)nc2ccc([N+](=O)[O-])cc12` displayed a melting point of 167 to 168 °C. Consider `N#Cc1c(N2CCN(C(=O)c3cccs3)CC2)c2cccnc2n(Cc2cccc(F)c2)c1=O`, for which the melting point worked out at 231 °C. `O=C1CC[C@@H](CCCO)[C@H](c2ccc(OCc3ccccc3)cc2OCc2ccccc2)C1` (relative stereo) registered a melting point of 110 to 117 °C. The molecule `Cc1nc(-c2cc(N)c(=O)[nH]c2C)cs1` showed a melting point of 192 to 194 °C.

`CSC(=S)N1CCN(Cc2ccccc2N(C)C)CC1`: the melting point fell in the range of 90 to 91 °C.

Turning to `CN(C)c1cccc2c(S(=O)(=O)Nc3ncc(Cl)cc3Cl)cccc12`, the melting point is 161 to 163 °C. In turn, `CN(c1c(Cl)cc(Cl)cc1Cl)n1cc(C#N)c(=O)n(C)c1=O` came in with a melting point of 175 to 178 °C.

The molecule `O=c1[nH]c2cc(Cl)ccc2c(=O)n1S(=O)(=O)c1ccc(Cl)cc1F` showed a melting point of 267 to 268 °C. As for `CN1CCc2c(c3ccccc3n2CCC(=O)NN)C1`, the melting point lay within 123 to 124 °C.

The molecule `Cc1ccc(S(=O)(=O)NC(=O)C2C(=O)CC(C)CC2=O)cc1` (configuration not stated) returned a melting point of 122 °C. The result for `CNS(=O)(=O)c1cc(O)ccc1OC(=O)c1ccccc1` reads 168 to 170 °C; that for `Cc1nc(-n2ccn(Cc3ccc(C(F)(F)F)cc3)c2=O)sc1C(=O)NCc1cccnc1`, 163 to 164 °C; that for `CCOC(=O)c1cc2cc(C(F)(F)F)ccc2[nH]1`, 134 to 137 °C. `COc1cc(OCC(CO)CO)c(C=CC(=O)c2ccc(C(=O)O)cc2)cc1-c1cccs1` returned a melting point of 219 to 220 °C. `N#CCCNC(=O)c1cccc(-c2ccnc3cc(Cc4cccc(C(F)(F)F)c4)nn23)c1` came in with a melting point of 153 to 154 °C. `CCCCCCCCCCCCCCCNC(=O)OCCOCCOC(=O)N(Cc1ccccn1)C(=O)OCC` yielded a melting point of 52 to 53 °C.

In turn, `O=[N+]([O-])c1ccccc1COc1cccc2cccnc12` showed a melting point of 152 °C. Molecule `CN1CCN(C2CCCc3nc4ccccc4c(N)c32)CC1` (configuration not stated) gave a melting point of 200 to 202 °C. As for `O=C(NCCc1cncn1CCc1ccccc1)[C@H]1CN(Cc2ccccc2)CCN1C(=O)NC1CCCCC1`, the figure is 64.4 °C. With `CC(C)c1c(C(=O)N[C@H](C)[C@](O)(Cn2cncn2)c2ccc(F)cc2F)cnn1-c1ccc(Cl)cc1`, the melting point was 85 to 92 °C. As for `COc1cc(CCCC(=O)OC(C)C)ccc1OCc1nc(-c2ccco2)oc1C`, the figure is 45 to 46 °C; as for `CC(C)(C)OC(=O)N1CC=C(c2ccc3[nH]c(=O)[nH]c3c2)CC1`, 244 to 245 °C; as for `Nc1ncc(-c2cnc3ccc(-c4ccc(OCC5(N)COC5)cc4)nn23)cc1C(F)(F)F`, 198 to 200 °C. Consider `CN(Cc1ccccc1)c1nc(N2CCC(NCC(c3ccccc3)c3ccccc3)CC2)nc2c(N3CCOCC3)ncnc12`, for which the melting point lay within 106 to 108 °C.

The molecule `OCCCCc1ccc(OCc2coc(/C=C/c3ccc(F)cc3F)n2)cc1` displayed a melting point of 75 to 76 °C.

`COc1ccc(OCc2ccccc2)c(C(=O)C=Cc2cccc([N+](=O)[O-])c2)c1`: the melting point was 108 to 110 °C. Molecule `COC(=O)[C@H]1Cc2ccc(C)cc2C(=O)[C@H](c2ccccc2)S1` (relative stereo) gave a melting point of 136 to 137 °C. On to `C#CCOc1ccc2c(C)cc(=O)oc2c1C(=O)C=Cc1ccccc1`, for which the melting point fell in the range of 140 to 142 °C. Take `COc1ccc(Cl)cc1NC(=S)C1CCCCn2c1nc(-c1ccncn1)cc2=O` (racemic): the melting point was in the range of 220 to 223 °C.

`CC(=O)N1CCc2cc(C(=O)CCCCCl)ccc21` came in with a melting point of 90 to 91 °C. As for `Clc1cccc2c1Sc1ccccc1N2C1=CCCN1C1=NCCC1`, the figure is 195 to 197 °C; as for `O=C(Nc1ccc(C(CC2CCCC2)C(=O)Nc2nccs2)cc1)c1ccncc1` (configuration not stated), 225 to 230 °C. As for `CN1C(=O)CC[C@]2(C)c3ccc(-c4ccc5c(c4)CCC5O)cc3CC[C@@H]12` (some centres not stated), the figure is 185 to 190 °C; as for `CCCO[C@@H]1[C@@H](OC)[C@H](C)O[C@@H](OC(=O)Nc2ccc(-c3ncn(-c4ccc(OC(F)(F)C(F)(F)F)cc4)n3)cc2)[C@@H]1OC`, 158 °C. With `CC(=O)N1CCN=C1Nc1cc(C(C)C)nn1C(C)C`, the melting point fell in the range of 139 to 140 °C.

Turning to `O=C(O)c1cc2c(=O)n(-c3ccccc3)c3ccccc3n2c1`, the melting point lay within 304 to 306 °C. `CCCc1c(OCCCC/C=C/c2ccc(C(=O)c3cccc(C(=O)O)c3)cc2CCC(=O)O)ccc2c1OCCC2=O` showed a melting point of 105 to 109 °C. For `O=C(Cn1c(-c2cccnc2)ncc(NC(=O)OCc2ccccc2)c1=O)NC(Cc1ccccc1)C(=O)C(F)(F)F` (configuration not stated), the melting point lay in the range of 88 to 91 °C. In turn, `Cc1nc(-c2c(F)cccc2Cl)n[nH]1` returned a melting point of 232 to 233 °C. For the molecule `Cn1cnc(COc2nc3c(cc2C(C)(C)C)nnn3-c2ccccc2F)n1`, the melting point lay within 127 to 129 °C. Regarding `CCC(C)COc1ccc(-c2ccc(O)cc2)cc1C#N` (configuration not stated), the melting point stood at 181 °C. `COc1nc(NC(=O)NS(=O)(=O)c2ccccc2Cl)nc2nccnc12` displayed a melting point of 212 °C. Take `COc1cc(OC)cc(C2(Cl)C(=O)Nc3ccc(Cl)cc32)c1` (configuration not stated): the melting point turned out to be 157 °C. `COc1ccc2nc(NCC3CCN(CC4COc5ccccc5O4)CC3)sc2c1` (configuration not stated) yielded a melting point of 135 °C.

The molecule `CC1(C)CCC(C)(C)c2cc3cc(-c4ccc(C(=O)O)o4)ccc3cc21` gave a melting point of 229 to 230 °C.

On to `CC(Cc1cc2ccccc2[nH]1)(NC(=O)OC1C2CC3CC(C2)CC1C3)C(=O)NCC(N)c1ccccc1` (configuration not stated), for which the melting point lay within 96 to 102 °C.

Consider `ClCc1ccc(CCl)o1`, for which the melting point is 27 to 28 °C. The result for `CNC(=O)c1ccccc1I` reads 153 to 154 °C; that for `COc1ccc(C(=O)NCCCCCCCCCCCNC(=O)c2ccc(OC)cc2)cc1`, 150 to 151 °C; that for `N=C(N)Nc1nc2cc(Cl)cc(Cl)c2[nH]1`, 264 to 265 °C. As for `CCCCCCc1ccc(CCCCC(N)(CO)CO)cc1`, the figure is 99 to 102 °C; as for `CN(C)N=Nc1cc([N+](=O)[O-])sc1C(=O)O`, 184 to 186 °C; as for `CCOC(=O)c1nn(C)c(OC(F)F)c1CO`, 90 to 91 °C. As for `Cc1c(C(=O)N[C@H](C)[C@](O)(Cn2cncn2)c2ccc(F)cc2F)cnn1-c1ccccc1Cl`, the melting point was in the range of 232 to 233 °C. In turn, `O=C(Oc1ccc(F)cc1)[C@H]1CC[C@H](C(F)(F)C(F)(F)C(F)(F)C(F)(F)C(F)(F)C(F)(F)C(F)(F)F)CC1` gave a melting point of 93.6 °C. Take `COc1ccc2c(c1)CC(C)C1C2C(C)CC2(C)C(O)CCC12` (configuration not stated): the melting point was 130 to 131 °C. As for `Cn1c(-c2ccccc2)c(CCCl)sc1=O`, the figure is 88 to 90 °C. As for `CC(C)Oc1ccccc1C(=O)NC(=O)NC1CN2CCC1CC2` (configuration not stated), the figure is 171 to 175 °C; as for `CC(C)(CNc1ccnc2cc(Cl)ccc12)NCc1c(Cl)cccc1Cl`, 154 to 155 °C; as for `c1cc(-c2c(-c3ccsc3)nc3ccc(N4CC5CNCC5C4)nn23)ccn1` (configuration not stated), 196 to 198 °C. Consider `COc1ccc(C(C)=O)c2c1CCN2C(C)=O`, for which the melting point was 88 to 89 °C.

For the molecule `c1ccc(-c2nn3c(c2-c2nc4ncccc4o2)CCC3)nc1`, the melting point lay within 182 to 184 °C.

As for `CN(C1CCN(c2ncc3ncnc(Nc4ccc(F)c(Cl)c4)c3n2)CC1)S(C)(=O)=O`, the melting point was in the range of 225 to 227 °C. As for `CN1Cc2[nH]c3ccccc3c2C1`, the figure is 110 to 120 °C; as for `O=[N+]([O-])N=C1N(Cc2ccc(Cl)nc2)CCN1[N+](=O)[O-]`, 158 °C; as for `[N-]=[N+]=Nc1nc(N)nc2nc[nH]c12`, greater than 260 °C. Turning to `CC1(c2ccccc2)CN(C(=O)Nc2ccc(Cl)cc2)N=C1c1ccc(Cl)cc1` (configuration not stated), the melting point was in the range of 151 to 158 °C. The result for `CCCN(CCC)C1Cc2cccc3ccc(=O)n(c23)C1` (configuration not stated) reads 82 to 84 °C. `Cc1cc(-c2[nH]c3ccc(C#N)cc3c2C)cc(C)c1O`: the melting point was in the range of 185 to 186 °C.

The molecule `CSc1nc(O)c2c(n1)CCCS2` showed a melting point of 248 °C.

In the case of `O=C(O)C1Cc2ccc3ccccc3c2C1` (single isomer, unassigned; (-)), the melting point was 139 to 141 °C.

`CCOC(=O)c1cn2c(-c3nn(C)c(OC(F)F)c3Cl)c(F)cc(Cl)c2n1` yielded a melting point of 140 to 143 °C.

In turn, `O=c1[nH]sc2c1c(=O)c1cc(F)c(N3CCNCC3)cc1n2C1CC1` returned a melting point greater than 275 °C. Consider `Nc1c(-c2ccc(-c3ccc(F)cc3)c(F)c2)nc2ccc(F)cc2c1C(=O)O`, for which the melting point fell in the range of 245 to 247 °C. The result for `N#Cc1ccc2cc(CCCCCc3cc4ccc(C#N)cc4o3)oc2c1` reads 106 to 107 °C; that for `COc1ccc(-c2cc(=S)n(C)c(=O)[nH]2)cc1OC`, 247 to 249 °C; that for `CC(C)c1cc2c(cc1CSCC(=O)O)OCO2`, 83 to 84 °C. As to `CCNC(=O)c1nnc(S)o1`, the melting point was found to be 210 °C. With `CCCOc1cccc2c1OCN(CCc1ccccc1)C2`, the melting point was 84 °C. For the molecule `CC(=O)Nc1nc2c(ncn2COC(COC(C)=O)COC(C)=O)c(=O)[nH]1`, the melting point is 172 °C. Molecule `CCCN(Cc1cccc(C(=N)N)c1)C(=O)Nc1ccc(-c2ccccc2S(N)(=O)=O)cc1` showed a melting point of 166 to 167 °C. `O=C(O)Cc1c(C(=O)c2cc3ccccc3cn2)[nH]c2cc(Cl)ccc12` came in with a melting point of 236 to 237 °C. Turning to `CCCCN(C)c1nsc(NC(=O)NC)c1C#N`, the melting point fell in the range of 109 to 110 °C.
